The source of these data is ChEMBL document CHEMBL4421728, “Bach1 Inhibitors in Combination with Nrf2 Activators and Pharmaceutical Compositions Thereof” (2017).

The target in assay [1] is T1, Transcription regulator protein BACH1 (Homo sapiens) (UniProt O14867).
T1 sequence (whole entry): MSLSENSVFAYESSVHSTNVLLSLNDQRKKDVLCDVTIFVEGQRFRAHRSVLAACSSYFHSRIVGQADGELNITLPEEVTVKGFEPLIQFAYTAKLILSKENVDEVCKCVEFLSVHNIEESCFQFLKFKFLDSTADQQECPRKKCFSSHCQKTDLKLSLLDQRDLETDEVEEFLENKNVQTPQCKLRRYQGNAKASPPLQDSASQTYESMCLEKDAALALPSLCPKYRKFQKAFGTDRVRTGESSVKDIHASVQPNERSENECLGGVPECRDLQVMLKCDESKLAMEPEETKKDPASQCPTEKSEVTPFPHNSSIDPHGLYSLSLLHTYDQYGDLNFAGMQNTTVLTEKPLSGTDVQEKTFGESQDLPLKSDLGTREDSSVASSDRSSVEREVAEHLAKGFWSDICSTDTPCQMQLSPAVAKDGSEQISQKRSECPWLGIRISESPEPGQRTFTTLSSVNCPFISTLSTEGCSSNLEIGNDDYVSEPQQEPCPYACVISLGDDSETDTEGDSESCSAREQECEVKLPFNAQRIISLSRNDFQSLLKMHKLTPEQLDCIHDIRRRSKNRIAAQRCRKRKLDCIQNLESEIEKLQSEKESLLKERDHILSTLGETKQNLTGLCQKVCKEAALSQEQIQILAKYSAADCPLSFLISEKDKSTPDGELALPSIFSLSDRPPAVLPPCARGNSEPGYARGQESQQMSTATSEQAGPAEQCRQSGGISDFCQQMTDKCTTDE
The assay is described as follows: Inhibition of Bach1 in normal human lung fibroblasts assessed as induction of HMOX protein expression at 0.039 uM incubated for 16 to 18 hrs by immunostaining relative to control.

The target of assay [2] is T1, Transcription regulator protein BACH1 (Homo sapiens). As to the kind of experiment: Inhibition of Bach1 in normal human lung fibroblasts assessed as induction of HMOX protein expression by measuring HMOX positive cells level at 0.019 uM incubated for 16 to 18 hrs by immunostaining relative to control DMSO. Further details: scale not given: the % may be the effect or the level left.

For assay [3] the target is unchanged. The assay is described as follows: Inhibition of Bach1 in normal human lung fibroblasts assessed as induction of HMOX protein expression by measuring HMOX positive cells level at 0.156 uM incubated for 16 to 18 hrs by immunostaining relative to control DMSO. Also on record: scale not given: the % may be the effect or the level left.
Assay [4] has the same target. As to the kind of experiment: Inhibition of Bach1 in normal human lung fibroblasts assessed as induction of HMOX protein expression by measuring HMOX positive cells level at 0.039 uM in presence of 0.03 uM Nrf2 activator DMF incubated for 16 to 18 hrs by immunostaining relative to control DMSO. Also on record: scale not given: the % may be the effect or the level left.

The target is the same in assay [5]. As to the kind of experiment: Inhibition of Bach1 in normal human lung fibroblasts assessed as induction of HMOX protein expression by measuring HMOX positive cells level at 0.078 uM in presence of 0.03 uM Nrf2 activator DMF incubated for 16 to 18 hrs by immunostaining relative to control DMSO. Also on record: scale not given: the % may be the effect or the level left.

The target is the same in assay [6]. The assay is described as follows: Inhibition of Bach1 in normal human lung fibroblasts assessed as induction of HMOX protein expression by measuring HMOX positive cells level at 0.156 uM in presence of 0.1 uM Nrf2 activator DMF incubated for 16 to 18 hrs by immunostaining relative to control DMSO. Further details: scale not given: the % may be the effect or the level left.

Assay [7] shares this target. As to the kind of experiment: Inhibition of Bach1 in normal human lung fibroblasts assessed as induction of HMOX protein expression by measuring HMOX positive cells level at 0.156 uM in presence of 0.3 uM Nrf2 activator DMF incubated for 16 to 18 hrs by immunostaining relative to control DMSO. Also on record: scale not given: the % may be the effect or the level left.

The target is the same in assay [8]. The assay is described as follows: Inhibition of Bach1 in normal human lung fibroblasts assessed as induction of HMOX protein expression by measuring HMOX positive cells level at 0.039 uM in presence of 3 uM Nrf2 activator DMF incubated for 16 to 18 hrs by immunostaining relative to control DMSO. Further details: scale not given: the % may be the effect or the level left.

The target is the same in assay [9]. As to the kind of experiment: Inhibition of Bach1 in normal human lung fibroblasts assessed as induction of HMOX protein expression by measuring HMOX positive cells level at 0.039 uM in presence of 10 uM Nrf2 activator DMF incubated for 16 to 18 hrs by immunostaining relative to control DMSO. Also on record: scale not given: the % may be the effect or the level left.

The target is the same in assay [10]. The assay is described as follows: Inhibition of Bach1 in normal human lung fibroblasts assessed as induction of HMOX protein expression by measuring HMOX positive cells level at 0.078 uM in presence of 10 uM Nrf2 activator DMF incubated for 16 to 18 hrs by immunostaining relative to control DMSO. Further details: scale not given: the % may be the effect or the level left.

For assay [11] the target is unchanged. As to the kind of experiment: Inhibition of Bach1 in normal human lung fibroblasts assessed as induction of HMOX protein expression by measuring HMOX positive cells level at 0.156 uM in presence of 30 uM Nrf2 activator DMF incubated for 16 to 18 hrs by immunostaining relative to control DMSO. Also on record: scale not given: the % may be the effect or the level left.

Assay [12] shares this target. As to the kind of experiment: Inhibition of Bach1 in normal human lung fibroblasts assessed as induction of HMOX protein expression at 0.156 uM in presence of 0.03 uM Nrf2 activator DMF incubated for 16 to 18 hrs by immunostaining relative to control.
For assay [13] the target is unchanged. The assay is described as follows: Inhibition of Bach1 in normal human lung fibroblasts assessed as induction of HMOX protein expression at 0.156 uM in presence of 0.3 uM Nrf2 activator DMF incubated for 16 to 18 hrs by immunostaining relative to control.
Assay [14] has the same target. As to the kind of experiment: Inhibition of Bach1 in normal human lung fibroblasts assessed as induction of HMOX protein expression at 0.078 uM in presence of 1 uM Nrf2 activator DMF incubated for 16 to 18 hrs by immunostaining relative to control.
The target is the same in assay [15]. The assay is described as follows: Inhibition of Bach1 in normal human lung fibroblasts assessed as induction of HMOX protein expression at 0.156 uM in presence of 1 uM Nrf2 activator DMF incubated for 16 to 18 hrs by immunostaining relative to control.
For assay [16] the target is unchanged. As to the kind of experiment: Inhibition of Bach1 in normal human lung fibroblasts assessed as induction of HMOX protein expression at 0.019 uM in presence of 3 uM Nrf2 activator DMF incubated for 16 to 18 hrs by immunostaining relative to control.
Assay [17] shares this target. The assay is described as follows: Inhibition of Bach1 in normal human lung fibroblasts assessed as induction of HMOX protein expression at 0.039 uM in presence of 3 uM Nrf2 activator DMF incubated for 16 to 18 hrs by immunostaining relative to control.
The target is the same in assay [18]. As to the kind of experiment: Inhibition of Bach1 in normal human lung fibroblasts assessed as induction of HMOX protein expression at 0.078 uM in presence of 3 uM Nrf2 activator DMF incubated for 16 to 18 hrs by immunostaining relative to control.
Assay [19] shares this target. As to the kind of experiment: Inhibition of Bach1 in normal human lung fibroblasts assessed as induction of HMOX protein expression at 0.078 uM in presence of 10 uM Nrf2 activator DMF incubated for 16 to 18 hrs by immunostaining relative to control.
Assay [20] shares this target. The assay is described as follows: Inhibition of Bach1 in normal human lung fibroblasts assessed as induction of HMOX protein expression at 0.156 uM in presence of 10 uM Nrf2 activator DMF incubated for 16 to 18 hrs by immunostaining relative to control.

As to `CNC(=O)c1ccc2c(c1)nc(Nc1nc3ccc(OC(F)(F)F)cc3s1)n2C`, the fold change (FC) in assay [1] was found to be 1.09.
Turning to `Cn1c(Nc2nc3ccc(C(F)(F)F)cc3s2)nc2cc(C(=O)NCCOCCO)ccc21`, the Activity in assay [2] was 19.4%; in assay [3], 96.3%; in [4], 11.9%; in assay [5] it was 33.5%; in [6] it was 88.2%; in [7], 94.5%. In addition, the Activity in [8] stood at 78.7%; in assay [9], 99.2%; in assay [10], 97.7%; in assay [11] it was 92.2%. Further, the fold change (FC) in [1] came out at 2.51; in assay [12] it was 5.22; in [13], 5.17; in assay [14] it was 3.83; in assay [15], 6.04; in [16], 3.55. Further, the fold change (FC) in assay [17] was found to be 4; in assay [18] it was 4.2; in assay [19] it was 6.52; in assay [20], 7.5.
Take `COCCNC(=O)c1cnc2c(c1)nc(Nc1nc3ccc(OC(F)(F)F)cc3s1)n2C`: the Activity amounted to 2.31% in assay [2]; 11.3% in assay [3]; 1.53% in [4]; 1.72% in [5]; 18.5% in assay [6]; 30.1% in assay [7]. Moreover, the Activity amounted to 75.8% in assay [8], 92% in assay [9], 94.5% in assay [10] and 98.2% in [11]. Besides, the fold change (FC) in [1] came to 1.45; in assay [12] it was 1.46; in assay [13], 2.06; in [14], 2.29; in assay [15], 2.87; in assay [16], 2.98. The fold change (FC) in assay [17] is 2.84; in assay [18], 3.12; in [19], 5.06; in assay [20], 5.58.
Turning to `CN(C)C(=O)CNC(=O)c1ccc2c(c1)nc(Nc1nc3ccc(C(F)(F)F)cc3s1)n2C`, the Activity was found to be 3.6% in assay [2]; 28.6% in assay [3]; 5.74% in assay [4]; 5.99% in assay [5]; 33.1% in [6]; 50% in assay [7]. Further, the Activity came out at 68% in [8], 94.7% in assay [9], 97.2% in assay [10] and 84% in assay [11]. Also, the fold change (FC) was 1.37 in [1]; 1.99 in assay [12]; 3.06 in [13]; 2.53 in [14]; 4.08 in [15]; 2.86 in assay [16]. The fold change (FC) in assay [17] worked out at 3.01; in assay [18] it was 4.33; in assay [19], 6.46; in assay [20] it was 6.55.
